Measurements reported in PMC4564171 (PLoS ONE, 2015).
“And” between values parts separate entries of the source, which are not always exact repeats. Equal values may be shown once.

Tests used:
[1] = tested on: E. coli RNA polymerase (RNAP) binding to the lac promoter (plac); experiment: Control EMSA of E. coli RNA polymerase binding to the lac promoter; conditions: compound 100 μM; RNAP 2.7 μM; 5'Cy5-plac probe 0.25 μM
Experimental: [picture] Figure C: EMSA depicting E. coli RNA Polymerase (RNAP) Binding to the lac Promoter (plac) in the Presence of 19615. […] For the EMSA a hybrid 2% acrylamide, 1% agarose gel was used which was made with and ran in a 1X TGE buffer (25 mM Tris base, 190 mM glycine, 1 mM EDTA, pH 8.3). The sequence of the 5’Cy5-plac DNA probe is as follows: 5’-gtgccctggtctgg[…]-3’ (lowercase text represents LUEGO sequence, uppercase text represents lac promoter sequence).

mammalian cells = tested on: mammalian cells; parameters: method as in PMID 24549153; conditions: at the tested concentrations; cited from earlier work
[2] = tested on: 60 bp pvirB FID DNA probe; experiment: Fluorescence intercalator displacement (FID) assay, 60 bp probe; type: binding, Shigella flexneri; conditions: for 60 bp pvirB FID probe %fluorescence: ethidium bromide 45 μM, probe 1.5 μM
Experimental: (§1) The FID protocol was based on previously published studies and was conducted in triplicate. For the assay, black, half-area, 96-well plates (Corning, Twerksbury, MA) were used. First, 70 μL of ethidium bromide in Tris Buffer (0.1 M Tris HCl, 0.1 M NaCl, pH 8.0) was added to all wells. The concentration of ethidium bromide was contingent upon the length of the DNA probe that was used. For the 60 bp pvirB FID DNA probe, the final ethidium bromide concentration used was 45 μM; whereas, for the 10 bp pvirB (51–60) FID DNA probe, the final ethidium bromide concentration used was 7.5 μM. Next, 10 μL of either pvirB FID DNA probes (10 or 60 bp) in TE/NaCl buffer (see above) or 10 μL of TE/NaCl buffer (background fluorescence control) were added to the appropriate wells of the plate. The final concentrations of the pvirB FID DNA probes were 1.5 μM. Lastly, 20 μL of test compound (either 19615 or Berenil) in 10% DMSO Tris Buffer or 20 μL of 10% DMSO Tris Buffer (100% fluorescence control) were added to the appropriate wells of the plate. The final concentrations of each test compound ranged from 12.5 μM to 100 μM. After the addition of all reagents, the plates were protected from light and allowed to equilibrate for 30 min on an orbital shaker at room temperature. Following equilibration, fluorescence was measured […] using a Biotek Synergy H1 plate reader (Winooski, VT). The average background fluorescence was subtracted from all data generated and %fluorescence was calculated for all wells containing compound via the following formula: %fluorescence=Ftest/F100%^*100 where: Ftest = the average fluorescence value obtained for each test compound and F100% = the average fluorescence value obtained for each 100% fluorescence control.

[3] = tested on: VirF-driven transcriptional activation; parameters: method as in PMID 24549153; conditions: VirF-driven β-galactosidase reporter; read-out: Shigella-Based Reporter Assay IC50; cited from earlier work
[4] = tested on: 10 bp pvirB FID DNA probes; experiment: Fluorescence intercalator displacement (FID) assay, 10 bp probes; type: binding, Shigella flexneri; conditions: for 10 bp pvirB 51–60 FID probe %fluorescence: ethidium bromide 7.5 μM, probe 1.5 μM
Experimental: as §1, with “The final concentrations of each test compound ranged from 12.5 μM to 100 μM.” left out

E. coli RNA polymerase (RNAP) binding to the lac promoter (plac), sequence (P0A7Z4 whole entry): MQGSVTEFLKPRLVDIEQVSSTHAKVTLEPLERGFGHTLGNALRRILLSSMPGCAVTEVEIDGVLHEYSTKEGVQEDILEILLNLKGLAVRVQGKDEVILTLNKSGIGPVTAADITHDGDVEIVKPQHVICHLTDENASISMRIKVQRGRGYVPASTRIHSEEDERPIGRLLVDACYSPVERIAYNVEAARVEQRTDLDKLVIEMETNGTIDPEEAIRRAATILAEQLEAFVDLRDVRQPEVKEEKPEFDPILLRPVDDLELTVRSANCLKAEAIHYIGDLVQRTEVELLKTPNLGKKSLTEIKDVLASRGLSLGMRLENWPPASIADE
E. coli RNA polymerase (RNAP) binding to the lac promoter (plac), sequence (P0A800 whole entry, further chain): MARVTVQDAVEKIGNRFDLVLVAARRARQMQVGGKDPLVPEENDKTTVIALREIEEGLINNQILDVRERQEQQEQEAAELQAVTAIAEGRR
E. coli RNA polymerase (RNAP) binding to the lac promoter (plac), sequence (P0A8T7 whole entry, further chain): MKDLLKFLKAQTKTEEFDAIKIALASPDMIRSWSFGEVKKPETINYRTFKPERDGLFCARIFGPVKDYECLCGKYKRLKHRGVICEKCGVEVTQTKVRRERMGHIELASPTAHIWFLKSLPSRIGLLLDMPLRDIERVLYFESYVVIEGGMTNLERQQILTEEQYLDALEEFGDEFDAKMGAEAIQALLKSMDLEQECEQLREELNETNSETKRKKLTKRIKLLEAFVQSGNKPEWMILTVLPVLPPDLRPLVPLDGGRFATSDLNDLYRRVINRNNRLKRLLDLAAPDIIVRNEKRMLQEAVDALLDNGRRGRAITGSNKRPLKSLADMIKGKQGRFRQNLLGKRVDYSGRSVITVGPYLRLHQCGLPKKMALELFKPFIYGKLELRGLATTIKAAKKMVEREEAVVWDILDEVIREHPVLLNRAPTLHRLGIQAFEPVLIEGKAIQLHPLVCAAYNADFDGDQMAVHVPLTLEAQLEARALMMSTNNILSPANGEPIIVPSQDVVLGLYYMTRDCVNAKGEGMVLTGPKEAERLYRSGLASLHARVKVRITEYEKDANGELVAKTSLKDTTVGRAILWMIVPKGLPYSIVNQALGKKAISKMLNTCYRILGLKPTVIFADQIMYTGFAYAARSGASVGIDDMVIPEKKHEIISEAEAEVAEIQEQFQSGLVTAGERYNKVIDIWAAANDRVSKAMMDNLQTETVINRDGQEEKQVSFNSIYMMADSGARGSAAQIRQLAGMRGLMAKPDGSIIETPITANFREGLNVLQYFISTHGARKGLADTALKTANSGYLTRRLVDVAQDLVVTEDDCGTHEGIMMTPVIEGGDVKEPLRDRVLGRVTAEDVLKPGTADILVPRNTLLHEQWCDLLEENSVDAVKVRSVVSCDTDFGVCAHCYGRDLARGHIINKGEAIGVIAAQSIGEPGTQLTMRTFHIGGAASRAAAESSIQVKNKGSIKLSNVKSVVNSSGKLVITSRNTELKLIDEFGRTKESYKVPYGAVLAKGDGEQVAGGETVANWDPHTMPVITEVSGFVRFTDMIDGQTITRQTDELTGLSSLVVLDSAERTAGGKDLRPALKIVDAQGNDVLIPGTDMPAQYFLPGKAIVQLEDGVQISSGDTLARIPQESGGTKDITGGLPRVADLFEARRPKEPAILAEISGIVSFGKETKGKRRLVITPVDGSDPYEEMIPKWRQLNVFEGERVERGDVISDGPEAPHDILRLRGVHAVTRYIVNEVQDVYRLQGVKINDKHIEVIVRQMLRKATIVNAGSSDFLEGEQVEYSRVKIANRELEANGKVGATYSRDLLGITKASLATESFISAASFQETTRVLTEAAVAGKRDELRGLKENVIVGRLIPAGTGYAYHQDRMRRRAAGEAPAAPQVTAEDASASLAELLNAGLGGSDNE
E. coli RNA polymerase (RNAP) binding to the lac promoter (plac), sequence (P00579 whole entry, further chain): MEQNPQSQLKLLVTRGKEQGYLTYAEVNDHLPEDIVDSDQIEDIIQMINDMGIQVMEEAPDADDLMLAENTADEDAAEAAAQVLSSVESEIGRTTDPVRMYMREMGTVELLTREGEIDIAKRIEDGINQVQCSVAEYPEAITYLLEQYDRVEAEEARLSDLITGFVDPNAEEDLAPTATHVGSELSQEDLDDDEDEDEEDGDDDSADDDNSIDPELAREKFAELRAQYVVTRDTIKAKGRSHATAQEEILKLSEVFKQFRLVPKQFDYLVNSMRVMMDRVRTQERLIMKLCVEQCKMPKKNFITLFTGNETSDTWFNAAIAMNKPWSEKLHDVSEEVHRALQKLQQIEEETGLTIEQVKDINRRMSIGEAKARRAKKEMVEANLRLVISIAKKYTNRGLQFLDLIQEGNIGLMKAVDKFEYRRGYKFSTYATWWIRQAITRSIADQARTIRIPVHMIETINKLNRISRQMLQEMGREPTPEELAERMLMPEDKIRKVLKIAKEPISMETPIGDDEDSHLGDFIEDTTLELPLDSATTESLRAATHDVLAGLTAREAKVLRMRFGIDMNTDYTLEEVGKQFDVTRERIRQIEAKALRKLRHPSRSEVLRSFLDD
E. coli RNA polymerase (RNAP) binding to the lac promoter (plac), sequence (P0A8V2 whole entry, further chain): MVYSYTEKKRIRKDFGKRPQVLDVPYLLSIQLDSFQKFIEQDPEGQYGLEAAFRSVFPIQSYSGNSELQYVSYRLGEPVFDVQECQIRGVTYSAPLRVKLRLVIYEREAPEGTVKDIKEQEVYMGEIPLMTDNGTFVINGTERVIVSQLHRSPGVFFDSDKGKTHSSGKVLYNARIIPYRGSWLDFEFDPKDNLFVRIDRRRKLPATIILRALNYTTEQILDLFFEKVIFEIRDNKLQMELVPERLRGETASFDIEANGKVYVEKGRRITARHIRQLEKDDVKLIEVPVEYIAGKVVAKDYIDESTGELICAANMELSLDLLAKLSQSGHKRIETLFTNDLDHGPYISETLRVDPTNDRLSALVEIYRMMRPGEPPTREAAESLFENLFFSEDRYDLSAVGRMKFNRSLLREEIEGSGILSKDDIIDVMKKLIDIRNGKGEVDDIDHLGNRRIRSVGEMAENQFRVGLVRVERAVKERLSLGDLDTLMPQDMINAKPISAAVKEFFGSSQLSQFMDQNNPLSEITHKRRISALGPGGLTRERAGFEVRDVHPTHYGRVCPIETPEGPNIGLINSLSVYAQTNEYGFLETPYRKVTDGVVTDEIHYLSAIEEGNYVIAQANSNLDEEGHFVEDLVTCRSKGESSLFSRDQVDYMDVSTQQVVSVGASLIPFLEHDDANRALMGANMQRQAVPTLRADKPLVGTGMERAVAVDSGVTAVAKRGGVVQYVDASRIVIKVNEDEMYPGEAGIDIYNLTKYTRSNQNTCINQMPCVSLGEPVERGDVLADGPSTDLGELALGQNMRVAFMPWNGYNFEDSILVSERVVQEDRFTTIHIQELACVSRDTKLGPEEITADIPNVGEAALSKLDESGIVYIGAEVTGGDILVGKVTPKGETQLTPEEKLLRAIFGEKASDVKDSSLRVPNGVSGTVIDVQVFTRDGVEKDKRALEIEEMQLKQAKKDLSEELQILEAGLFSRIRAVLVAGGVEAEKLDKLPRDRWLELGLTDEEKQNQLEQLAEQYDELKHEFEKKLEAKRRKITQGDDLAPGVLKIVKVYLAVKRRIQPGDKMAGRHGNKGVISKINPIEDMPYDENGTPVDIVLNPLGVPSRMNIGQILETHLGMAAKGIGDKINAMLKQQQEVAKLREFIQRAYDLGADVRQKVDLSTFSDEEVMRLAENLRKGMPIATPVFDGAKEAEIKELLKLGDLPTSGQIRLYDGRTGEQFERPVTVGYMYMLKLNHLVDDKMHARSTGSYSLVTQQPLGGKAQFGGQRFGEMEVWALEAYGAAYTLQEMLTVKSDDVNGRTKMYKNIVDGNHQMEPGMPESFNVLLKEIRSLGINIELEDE

CN(C)CCOc1nc(-c2ccccc2)nc2c1oc1ccccc12 [compound 19615]
Effect on RNAP binding to the lac promoter (EMSA) [1]: no effect on RNAP binding
Toxicity to mammalian cells (mammalian cells): not toxic
Displacement of ethidium bromide from the pvirB DNA probes (FID) ([2]; 12.5 to 100 μM, both 60 bp and 10 bp probes): not able to displace ethidium bromide
60 bp pvirB FID probe %fluorescence ([2]; compound 12.5 μM): 93% ± 3%
60 bp pvirB FID probe %fluorescence ([2]; compound 25 μM): 97% ± 2%
60 bp pvirB FID probe %fluorescence ([2]; compound 50 μM): 95% ± 2%
60 bp pvirB FID probe %fluorescence ([2]; compound 100 μM): 93% ± 3%
IC50 [3]: 14 µM
%fluorescence, 10 bp fragment pvirB 21-30 ([4]; compound 2 μM, preliminary FID screen, 5'-AATAAAGATA-3'): 92% ± 1%
%fluorescence, 10 bp fragment pvirB 31-40 ([4]; compound 2 μM, preliminary FID screen, 5'-AATTGCATCA-3'): 94% ± 2%
%fluorescence, 10 bp fragment pvirB 1-10 ([4]; compound 2 μM, preliminary FID screen, 5'-AGAATATTAT-3'): 93% ± 6%
%fluorescence, 10 bp fragment pvirB 41-50 ([4]; compound 2 μM, preliminary FID screen, 5'-ATCCAGCTAT-3'): 94% ± 1%
%fluorescence, 10 bp fragment pvirB 51-60 ([4]; compound 2 μM, preliminary FID screen, 5'-TAAAATAGTA-3'): 92% and 92% ± 0%
%fluorescence, 10 bp fragment pvirB 11-20 ([4]; compound 2 μM, preliminary FID screen, 5'-TCTTTTATCC-3'): 95% ± 3%
10 bp pvirB 51–60 FID probe %fluorescence ([4]; compound 12.5 μM): 97% ± 2%
10 bp pvirB 51–60 FID probe %fluorescence ([4]; compound 25 μM): 97% ± 3%
10 bp pvirB 51–60 FID probe %fluorescence ([4]; compound 50 μM): 97% ± 2%
10 bp pvirB 51–60 FID probe %fluorescence ([4]; compound 100 μM): 95% ± 1%
